Measured values from PMC8469489, “Effect of Lactic Acid Bacteria on the Pharmacokinetics and Metabolism of Ginsenosides in Mice” (Pharmaceutics, 2021).

How the values were obtained:
[1] = system: lactic acid bacteria (LAB); assay: Incubation of single ginsenoside with LAB (formation rate of metabolite ginsenoside); assay type: in vitro ADME; details: 7 days, 37 °C, MRS broth
Protocol: To compare the involvement of LAB on individual ginsenoside, an aliquot (10 μL) of each ginsenoside stock solution (10 mM in methanol) was mixed with autoclaved MRS broth (550 mg/10 mL in distilled water) and added 2 g of LAB (contained 1 billion CFU). Then, the mixture was incubated for 7 days in a shaking incubator at 37 °C and 300 rpm. For the analysis of ginsenosides, 0.2 mL aliquot of incubation mixture was collected every 24 h for 7 days. The incubation medium was diluted 100-fold with distilled water and stored at −80 °C. For the ginsenoside analysis, 200 μL of an IS solution (0.05 ng/mL berberine in methanol) was added to 30 μL of 100-fold diluted samples.

[2] = system: lactic acid bacteria (LAB); assay: In vitro RGE fermentation with LAB; details: 7 days incubation
[3] = Recovery of ginsenosides from urine and feces for 48 h after RGE, amoxicillin vs control; details: for Fecal recovery, change by the amoxicillin treatment: feces 48 h after single oral RGE 2 g/kg, vs control; for Ginsenosides identified in urine: urine 48 h after single oral RGE 2 g/kg
Protocol: Aliquots (200 μL) of an IS (0.05 ng/mL berberine in methanol) were added to 30 μL of plasma or urine samples. Aliquots (600 μL) of an IS methanol solution containing 0.05 ng/mL berberine were added to 100 μL of 10% feces homogenate samples. […] After centrifugation, 200 μL of the supernatant was transferred to a clean tube and dried under a nitrogen stream at 40 °C. The residue was reconstituted using 100 μL of 70% methanol supplemented with 0.1% formic acid, and a 10-μL aliquot was injected into the LC–MS/MS system.

[4] = Recovery of ginsenosides from urine and feces for 48 h after RGE, amoxicillin with or without LAB; details: feces 48 h after single oral RGE 2 g/kg; Amoxicillin + LAB vs amoxicillin
Protocol: (§1) Mice received amoxicillin (n = 12, 20 mg/kg, dissolved in water at 2 mL/kg, twice daily) for 3 days via oral gavage. From the 4th day, mice from the LAB + amoxicillin treatment group received LAB (2 g/kg suspended in water at 2 mL/kg, once daily) for 7 days via oral gavage. Mice from the amoxicillin treatment group received water (2 mL/kg, once daily) for 7 days via oral gavage.

[5] = Pharmacokinetics of ginsenosides after single oral RGE after amoxicillin with or without repeated LAB treatment; details: single oral RGE 2 g/kg; for AUC: AUC 0 to 48 h
Protocol: as §1
Blood sampling was performed using a sparse sampling method via the right or left retro-orbital vein under isoflurane anesthesia at 0, 2, 4, and 8 h after the RGE administration through the heparinized capillary tube. […] After centrifugation of the blood samples at 10,000× g for 1 min, 30 μL aliquots of plasma were stored at −80 °C until the analysis of the ginsenosides. Subsequent protocols were identical to the amoxicillin treated group.
Pharmacokinetic parameters were calculated using WinNonlin (version 5.1, Pharsight, Mountain View, CA, USA) by a non-compartmental analysis.

[6] = Pharmacokinetics of ginsenosides after single oral RGE with or without amoxicillin treatment; assay type: in vivo, mice; details: single oral RGE 2 g/kg; for AUC: AUC 0 to 48 h
Protocol: Male ICR mice (7-weeks-year-old, 30–35 g) were purchased from Samtako Co. (Osan, Kyunggi-do, Korea). Animals were acclimatized for 1 week in an animal facility at Kyungpook National University. Food and water were available ad libitum.
Before blood sampling, mice were anesthetized using isoflurane (isoflurane vaporizer to 2% with oxygen flow at 0.8 L/min) for 5 min.

[7] = set-up: method as in PMID 32023909; details: cited from earlier work
[8] = Amoxicillin 3 days pretreatment
[9] = Amoxicillin 3 days then water 7 days

## CC(C)=CCC[C@](C)(O[C@@H]1O[C@H](CO)[C@@H](O)[C@H](O)[C@H]1O)[C@H]1CC[C@]2(C)[C@@H]1[C@H](O)C[C@@H]1[C@@]3(C)CC[C@H](O[C@@H]4O[C@H](CO)[C@@H](O)[C@H](O)[C@H]4O)C(C)(C)[C@@H]3CC[C@]12C [GF2]
[1]
  Metabolite formation on incubation of single ginsenoside with LAB: the highest among the ginsenoside formation rate
[2]
  Alteration of ginsenoside by fermentation of RGE with LAB: gradual decrease
[3]
  Fecal recovery, change by the amoxicillin treatment: significantly decreased
[4]
  Fecal recovery, change by LAB treatment: remained similar
[5]
  Plasma exposure / pharmacokinetic parameters, LAB treatment compared with amoxicillin group: increased

## CC(C)=CCC[C@](C)(O[C@@H]1O[C@H](CO[C@@H]2O[C@H](CO)[C@@H](O)[C@H](O)[C@H]2O)[C@@H](O)[C@H](O)[C@H]1O)[C@H]1CC[C@]2(C)[C@@H]1[C@H](O)C[C@@H]1[C@@]3(C)CC[C@H](O[C@@H]4O[C@H](CO)[C@@H](O)[C@H](O)[C@H]4O[C@@H]4O[C@H](CO)[C@@H](O)[C@H](O)[C@H]4O)C(C)(C)[C@@H]3CC[C@]12C [GRb1, 20(S)-ginsenosides Rb1]
[6]; male, ICR, mouse, plasma, po, 2 g/kg, Amoxicillin 3 days pretreatment, read-out: AUC
  AUC: 926 ± 439 ng·h/mL
[6]; male, ICR, mouse, plasma, po, 2 g/kg, Amoxicillin 3 days pretreatment, read-out: Cmax
  Cmax: 28.2 ± 12.9 ng/mL
[6]; male, ICR, mouse, plasma, po, 2 g/kg, Amoxicillin 3 days pretreatment, read-out: Half-life (converted)
  Half-Life: 21.7 ± 3.6 h
[6]; male, ICR, mouse, plasma, po, 2 g/kg, Amoxicillin 3 days pretreatment, read-out: MRT
  MRT: 19.3 ± 1.4 h
[6]; male, ICR, mouse, plasma, po, 2 g/kg, Control, plasma, n = 3, read-out: AUC
  AUC: 896 ± 81.3 ng·h/mL
[6]; male, ICR, mouse, plasma, po, 2 g/kg, Control, plasma, read-out: Cmax
  Cmax: 41.3 ± 14.3 ng/mL
[6]; male, ICR, mouse, plasma, po, 2 g/kg, Control, plasma, read-out: Half-Life (converted)
  Half-Life: 25.9 ± 4.7 h
[6]; male, ICR, mouse, plasma, po, 2 g/kg, Control, plasma, read-out: MRT
  MRT: 16.3 ± 2.7 h
[6]; male, ICR, mouse, plasma, Amoxicillin 3 days pretreatment, read-out: Tmax
  Tmax: 8 h
[6]
  Plasma concentrations, amoxicillin treatment compared to the control group: not significantly affected
[7]
  Ratio of liver AUC to plasma AUC: < 0.2
[2]
  Alteration of ginsenoside by fermentation of RGE with LAB: most significant decrease
[3]
  Fecal recovery, change by the amoxicillin treatment: increased
  Ginsenosides identified in urine: identified in urine
[4]
  Fecal recovery, change by LAB treatment: significantly decreased
[5]; male, ICR, mouse, plasma, po, 2 g/kg, AUC, Amoxicillin 3 days then water 7 days
  AUC: 752 ± 478 ng·h/mL
[5]; male, ICR, mouse, plasma, po, 2 g/kg, AUC, Amoxicillin + LAB (LAB 2 g/kg once daily 7 days)
  AUC: 622 ± 164 ng·h/mL
[5]; male, ICR, mouse, plasma, po, 2 g/kg, Cmax, Amoxicillin 3 days then water 7 days
  Cmax: 23.7 ± 11.6 ng/mL
[5]; male, ICR, mouse, plasma, po, 2 g/kg, Cmax, Amoxicillin + LAB
  Cmax: 26.2 ± 4.6 ng/mL
[5]; male, ICR, mouse, plasma, po, 2 g/kg, Half-Life, Amoxicillin 3 days then water 7 days
  Half-Life: 20.1 ± 2.2 h
[5]; male, ICR, mouse, plasma, po, 2 g/kg, Half-life, Amoxicillin + LAB
  Half-Life: 16.2 ± 0.9 h
[5]; male, ICR, mouse, plasma, po, 2 g/kg, MRT, Amoxicillin 3 days then water 7 days
  MRT: 18.6 ± 1.6 h
[5]; male, ICR, mouse, plasma, po, 2 g/kg, MRT, Amoxicillin + LAB
  MRT: 16.9 ± 1 h
[5]; male, ICR, mouse, plasma, po, 2 g/kg, Tmax, Amoxicillin 3 days then water 7 days
  Tmax: 3.3 ± 1.2 h
[5]; male, ICR, mouse, plasma, po, 2 g/kg, Tmax, Amoxicillin + LAB
  Tmax: 4.7 ± 3.1 h
[5]
  Detection in mouse plasma following repeated LAB administration in addition to amoxicillin: detected
  Plasma exposure / pharmacokinetic parameters, LAB treatment compared with amoxicillin group: not different

## CC(C)=CCC[C@](C)(O[C@@H]1O[C@H](CO[C@@H]2OC[C@H](O)[C@H](O)[C@H]2O)[C@@H](O)[C@H](O)[C@H]1O)[C@H]1CC[C@]2(C)[C@@H]1[C@H](O)C[C@@H]1[C@@]3(C)CC[C@H](O[C@@H]4O[C@H](CO)[C@@H](O)[C@H](O)[C@H]4O[C@@H]4O[C@H](CO)[C@@H](O)[C@H](O)[C@H]4O)C(C)(C)[C@@H]3CC[C@]12C [GRb2]
[6]; [8]
  Cmax: 10.3 ± 4.6 ng/mL
  Half-Life: 25.1 ± 2.7 h
  MRT: 21.4 ± 1.6 h
  Tmax: 13.3 ± 9.2 h
  AUC: 391.5 ± 192 ng·h/mL
[6]; Control, plasma
  Cmax: 12.5 ± 2.1 ng/mL
  Half-Life: 24.6 ± 6.7 h
  MRT: 19.4 ± 1.6 h
  Tmax: 8.0 ± 0.0 h
[6]; Control, plasma, n = 3
  AUC: 361.4 ± 74.3 ng·h/mL
[6]
  Plasma concentrations, amoxicillin treatment compared to the control group: not significantly affected
[1]
  Metabolite formation on incubation of single ginsenoside with LAB: produced GRg3 with the highest formation rate
[7]
  Ratio of liver AUC to plasma AUC: < 0.2
[2]
  Alteration of ginsenoside by fermentation of RGE with LAB: most significant decrease
[3]
  Fecal recovery, change by the amoxicillin treatment: increased
  Ginsenosides identified in urine: identified in urine
[4]
  Fecal recovery, change by LAB treatment: significantly decreased
[5]; [9]
  Cmax: 10.9 ± 5.2 ng/mL
  Half-Life: 19.2 ± 2.3 h
  MRT: 20.2 ± 1.7 h
  Tmax: 4.0 ± 0.0 h
  AUC: 385.9 ± 243.6 ng·h/mL
[5]; Amoxicillin + LAB (LAB 2 g/kg once daily 7 days)
  AUC: 419.2 ± 108.6 ng·h/mL
[5]; Amoxicillin + LAB
  Cmax: 15.1 ± 3.4 ng/mL
  Half-Life: 21.6 ± 1.7 h
  MRT: 18.1 ± 0.9 h
  Tmax: 8.0 ± 0.0 h
[5]
  Detection in mouse plasma following repeated LAB administration in addition to amoxicillin: detected
  Plasma exposure / pharmacokinetic parameters, LAB treatment compared with amoxicillin group: not different

## CC(C)=CCC[C@](C)(O[C@@H]1O[C@H](CO)[C@@H](O)[C@H](O)[C@H]1O)[C@H]1CC[C@]2(C)[C@@H]1[C@H](O)C[C@@H]1[C@@]3(C)CC[C@H](O)C(C)(C)[C@@H]3[C@@H](O[C@@H]3O[C@H](CO)[C@@H](O)[C@H](O)[C@H]3O[C@@H]3O[C@@H](C)[C@H](O)[C@@H](O)[C@H]3O)C[C@]12C [GRe]
[1]
  Metabolite formation on incubation of single ginsenoside with LAB: produced GRh1
[2]
  Alteration of ginsenoside by fermentation of RGE with LAB: most significant decrease
[3]
  Fecal recovery, change by the amoxicillin treatment: increased
  Ginsenosides identified in urine: identified in urine
[4]
  Fecal recovery, change by LAB treatment: significantly decreased

## CC(C)=CCC[C@](C)(O)[C@H]1CC[C@]2(C)[C@@H]1[C@H](O)C[C@@H]1[C@@]3(C)CC[C@H](O)C(C)(C)[C@@H]3[C@@H](O[C@@H]3O[C@H](CO)[C@@H](O)[C@H](O)[C@H]3O[C@@H]3O[C@H](CO)[C@@H](O)[C@H](O)[C@H]3O)C[C@]12C [GRf]
[1]
  Metabolite formation on incubation of single ginsenoside with LAB: produced GRh1
[2]
  Alteration of ginsenoside by fermentation of RGE with LAB: gradual decrease
[3]
  Fecal recovery, change by the amoxicillin treatment: increased
[4]
  Fecal recovery, change by LAB treatment: significantly decreased

## CC(C)=CCC[C@](C)(O[C@@H]1O[C@H](CO)[C@@H](O)[C@H](O)[C@H]1O)[C@H]1CC[C@]2(C)[C@@H]1[C@H](O)C[C@@H]1[C@@]3(C)CC[C@H](O)C(C)(C)[C@@H]3[C@@H](O[C@@H]3O[C@H](CO)[C@@H](O)[C@H](O)[C@H]3O)C[C@]12C [GRg1]
[1]
  Metabolite formation on incubation of single ginsenoside with LAB: produced GRh1
[2]
  Alteration of ginsenoside by fermentation of RGE with LAB: gradual decrease
[3]
  Fecal recovery, change by the amoxicillin treatment: increased
  Ginsenosides identified in urine: identified in urine
[4]
  Fecal recovery, change by LAB treatment: significantly decreased
